Measurements reported in patent US10272182B2, “Copolymer membrane for high-dose chemotherapy delivery during transarterial chemoembolization” (THE REGENTS OF THE UNIVERSITY OF CALIFORNIA, priority 2014, dated 2019).

Experiment: Hepatic artery IAC infusion of dox in swine without CF device
Type: in vivo
Settings: 50 mg dox (2 mg/mL) into the liver via hepatic artery over 10 minutes
Description: In vivo pilot experiments on swine were performed to establish an animal model and proof-of-concept for toxicity reduction. Farm swine (n=3, 30 kg) received humane care in compliance with the UCSF IACUC. Interventional procedures included anesthesia (Isoflurane), X-ray fluoroscopy, percutaneous transarterial catheterization of the hepatic artery, and percutaneous transveous catheterization of the vena cava. Heparin was […] in order to prevent thrombus formation. Heart rate, electrocardiogram, and O2-saturation were continuously monitored during the interventions. Animals were euthanized immediately after the procedures.
In the second animal, a CF device was not deployed, but rather a hepatic artery IAC infusion of dox was performed with subsequent sampling of blood at various times and positions throughout the venous system. This was performed in order to validate a hepatic dox IAC pharmacokinetic experimental model, measuring venous dox concentrations over time via a developed liquid chromatography-mass spectroscopy assay (Pacific Biolabs, Hercules, Calif.). In this animal, a microcatheter was advanced into the hepatic artery via standard access from a right femoral artery approach using fluoroscopy and contrast as needed. Via percutaneous UV access, central catheters were positioned with tips in the suprahepatic IVC and right hepatic vein. […]

With COc1cccc2c1C(=O)c1c(O)c3c(c(O)c1C2=O)C[C@@](O)(C(=O)CO)C[C@@H]3O[C@H]1C[C@H](N)[C@H](O)[C@H](C)O1 [dox, doxorubicin] the “hemodynamic changes during the procedure” value was “no hemodynamic changes”.
